How the values were obtained:
Type in all cases: physicochemical
[1] = Particle size distribution by laser particle size analyzer Mastersizer 3000; details: dispersed in n-heptane
Description: The particle size distribution of the APIs prepared in the examples of the present disclosure was determined by using a laser particle size analyzer Mastersizer 3000 (Malvern Panalytical, UK). Specifically, about 20 mg of the API (for example, API 5) prepared in the example of the present disclosure was taken, dispersed in 8 mL of n-heptane, sonicated for 10 seconds, added to a sample dispersion unit until the shading degree was in the range from 10% to 20%, and then measured. The stirring speed of the dispersion chamber was 2000 rpm, and the duration was 10 s.

[2] = Dynamic vapor sorption (DVS) analysis
Description: Dynamic vapor sorption analysis was performed using DVS Intrinsic (SMS, UK). The analysis adopted a gradient mode, the humidity change was 50%, 95%, 0%, and 50% in sequence, the humidity change of each gradient in the range from 0% to 90% was 10%, and the end point of the gradient was determined by dm/dt method. The end point of the gradient was determined in response to the dm/dt being less than 0.002% and maintained for 10 minutes.

[3] = Stability of crystal form A, influencing factor and accelerated stability experiments
From the text: In addition, the inventors also investigated the stability of the crystal form A under conditions of the influencing factor experiment and the accelerated stability experiment, and the results is as follows: […]

[4] = Thermogravimetric analysis (TGA); details: 10° C./min
Description: A thermogravimetric analyzer TA Discovery 55 (TA, US) was used. 2 mg to 5 mg of the sample was placed in an equilibrated open aluminum sample pan and automatically weighed in a TGA oven. The sample was heated to the final temperature at a rate of 10° C./min with a nitrogen purge rate of 60 mL/min at the sample and 40 mL/min at the balance.

Row | Structure (SMILES) | Particle size D50 of API [1] | Particle size D90 of API [1] | other results
1 | Cn1cnc(Cn2c(=O)[nH]/c(=N\c3cc4cn(C)nc4cc3Cl)n(Cc3cc(F)c(F)cc3F)c2=O)n1 [API 12] | 8.3 μm | 10.9 μm | –
2 | Cn1cnc(Cn2c(=O)[nH]/c(=N\c3cc4cn(C)nc4cc3Cl)n(Cc3cc(F)c(F)cc3F)c2=O)n1 [API 8] | 20.1 μm | 40.7 μm | –
3 | Cn1cnc(Cn2c(=O)[nH]/c(=N\c3cc4cn(C)nc4cc3Cl)n(Cc3cc(F)c(F)cc3F)c2=O)n1 [crystal form A, (6E)-6-[(6-chloro-2-methyl-2H-indazol-5-yl)imino]-3-[(1-methyl-1H-1,2,4-triazol-3-yl)methyl]-1-(2,4,5-trifluorobenzyl)-1,3,5-triazine-2,4-dione fumaric acid] | – | – | Hygroscopicity ([2]; DVS): almost no hygroscopicity; Crystal form stability, XRPD before and after DVS experiment ([2]; FIG. 3): very stable, is not prone to crystalline transformation; DVS weight loss ([2]; at 0% RH): 0.02%; DVS weight gain ([2]; at 80% RH): 0.06%; Stability (appearance, purity, dissociation, crystalline transformation) ([3]; 40° C. and 75% relative humidity (RH), within 2 months): stable; Stability (appearance and purity) ([3]; high temperature, high humidity, and light irradiation, within 30 days): stable; TGA decomposition temperature ([4]; nitrogen): higher than 240 °C; TGA weight loss ([4]; heated to 150° C.): basically no weight loss
4 | Cn1cnc(Cn2c(=O)[nH]/c(=N\c3cc4cn(C)nc4cc3Cl)n(Cc3cc(F)c(F)cc3F)c2=O)n1 [API 11] | 20.6 μm | 42.7 μm | –
5 | Cn1cnc(Cn2c(=O)[nH]/c(=N\c3cc4cn(C)nc4cc3Cl)n(Cc3cc(F)c(F)cc3F)c2=O)n1 [API 14] | 20.5 μm | 41.3 μm | –
6 | Cn1cnc(Cn2c(=O)[nH]/c(=N\c3cc4cn(C)nc4cc3Cl)n(Cc3cc(F)c(F)cc3F)c2=O)n1 [API 7] | 22.3 μm | 45.5 μm | –
7 | Cn1cnc(Cn2c(=O)[nH]/c(=N\c3cc4cn(C)nc4cc3Cl)n(Cc3cc(F)c(F)cc3F)c2=O)n1 [API 2] | 20.3 μm | 40.1 μm | –
8 | Cn1cnc(Cn2c(=O)[nH]/c(=N\c3cc4cn(C)nc4cc3Cl)n(Cc3cc(F)c(F)cc3F)c2=O)n1 [API 5] | 18.6 μm | 34.2 μm | –
9 | Cn1cnc(Cn2c(=O)[nH]/c(=N\c3cc4cn(C)nc4cc3Cl)n(Cc3cc(F)c(F)cc3F)c2=O)n1 [API 9] | 8.8 μm | 10.4 μm | –
10 | Cn1cnc(Cn2c(=O)[nH]/c(=N\c3cc4cn(C)nc4cc3Cl)n(Cc3cc(F)c(F)cc3F)c2=O)n1 [API 1] | 28.9 μm | 58.6 μm | –
11 | Cn1cnc(Cn2c(=O)[nH]/c(=N\c3cc4cn(C)nc4cc3Cl)n(Cc3cc(F)c(F)cc3F)c2=O)n1 [API 17] | 35.4 μm | 65.7 μm | –
12 | Cn1cnc(Cn2c(=O)[nH]/c(=N\c3cc4cn(C)nc4cc3Cl)n(Cc3cc(F)c(F)cc3F)c2=O)n1 [API 10] | 22.1 μm | 43.4 μm | –
13 | Cn1cnc(Cn2c(=O)[nH]/c(=N\c3cc4cn(C)nc4cc3Cl)n(Cc3cc(F)c(F)cc3F)c2=O)n1 [API 13] | 22.4 μm | 48.9 μm | –
14 | Cn1cnc(Cn2c(=O)[nH]/c(=N\c3cc4cn(C)nc4cc3Cl)n(Cc3cc(F)c(F)cc3F)c2=O)n1 [API 15] | 10.2 μm | 15.8 μm | –
15 | Cn1cnc(Cn2c(=O)[nH]/c(=N\c3cc4cn(C)nc4cc3Cl)n(Cc3cc(F)c(F)cc3F)c2=O)n1 [API 3] | 8.4 μm | 10.2 μm | –
16 | Cn1cnc(Cn2c(=O)[nH]/c(=N\c3cc4cn(C)nc4cc3Cl)n(Cc3cc(F)c(F)cc3F)c2=O)n1 [API 6] | 8.9 μm | 15.6 μm | –
17 | Cn1cnc(Cn2c(=O)[nH]/c(=N\c3cc4cn(C)nc4cc3Cl)n(Cc3cc(F)c(F)cc3F)c2=O)n1 [API 4] | 23.5 μm | 46.7 μm | –
18 | Cn1cnc(Cn2c(=O)[nH]/c(=N\c3cc4cn(C)nc4cc3Cl)n(Cc3cc(F)c(F)cc3F)c2=O)n1 [API 16] | 38.3 μm | 70.5 μm | –

Reference: patent publication US11655240B1, “Crystal form of compound and fumaric acid, pharmaceutical composition and method for treating coronavirus-induced diseases” (priority 2022, dated 2023)
